{"source": "ChEMBL document CHEMBL5518198", "about": "“Three Rounds of Stability-Guided Optimization and Systematical Evaluation of Oncolytic Peptide LTX-315” (J Med Chem, 2024)", "key": {"[1]": {"assay": "Drug localization in human HeLa cells mitochondria at 25 uM by Mito-Tracker red CMXRos staining based fluorescence microscopic analysis", "format": "ADME"}, "[2]": {"assay": "Drug localization in human HeLa cells mitochondria assessed as mander's colocalization coefficient at 25 uM after 10 to 120 mins by Mito-Tracker red CMXRos staining based fluorescence microscopic analysis", "format": "ADME", "conditions": "time 10-120 min; call rule not given here"}, "[3]": {"assay": "Drug localization in human HeLa cells mitochondria assessed as mander's colocalization coefficient at 25 uM within 2 hrs by Mito-Tracker red CMXRos staining based fluorescence microscopic analysis", "format": "ADME"}, "[4]": {"assay": "Drug localization in human HeLa cells nucleus assessed as mander's colocalization coefficient at 25 uM after 2 to 120 mins by SYBR green I staining based fluorescence microscopic analysis", "format": "ADME, subcellular", "conditions": "time 2-120 min"}, "[5]": {"assay": "Stability in human serum assessed as compound degradation by measuring increase in fluorescence intensity at 100 uM after 36 to 48 hrs by IQF based assay", "format": "ADME, cell-free", "conditions": "time 36-48 hrs"}, "[6]": {"target": "T1, Trypsin (Homo sapiens, UniProt P07477+P07478+P35030)", "assay": "Stability of compound assessed as trypsin (unknown origin) mediated compound degradation by measuring increase in fluorescence intensity at 100 uM after 36 to 48 hrs by IQF based assay", "format": "ADME, protein assay", "conditions": "time 36-48 hrs"}, "[7]": {"assay": "Stability of compound in mouse A20 cells assessed as compound degradation by measuring increase in fluorescence intensity at 10 uM after 36 to 48 hrs by IQF based assay", "format": "ADME, cell-based", "conditions": "a20, 10 µM, time 36-48 hrs"}, "[8]": {"assay": "Stability in human serum assessed as compound degradation by measuring increase in fluorescence intensity at 100 uM measured upto 72 hrs by IQF based assay", "format": "ADME, cell-free"}, "[9]": {"assay": "Stability of compound in mouse A20 cells assessed as compound degradation by measuring increase in fluorescence intensity at 10 uM measured upto 72 hrs by IQF based assay", "format": "ADME, cell-based", "conditions": "a20, 72 h"}, "[10]": {"target": "T1, Trypsin", "assay": "Stability of compound assessed as trypsin (unknown origin) mediated compound degradation by measuring increase in fluorescence intensity at 100 uM measured upto 72 hrs by IQF based assay", "format": "ADME, protein assay"}}}
{"smiles": "CCN(CC)c1ccc2cc(C(=O)NCCOCC(=O)N[C@H](CCCCN)C(=O)N[C@H](CCCCN)C(=O)N[C@H](Cc3c[nH]c4ccccc34)C(=O)N[C@H](Cc3c[nH]c4ccccc34)C(=O)N[C@H](CCCCN)C(=O)N[C@H](CCCCN)C(=O)N[C@H](Cc3c[nH]c4ccccc34)C(=O)N[C@@H](C(=O)N[C@H](CCCCN)C(N)=O)C(c3ccccc3)c3ccccc3)c(=O)oc2c1", "values": [{"measurement": "Drug uptake", "setting": "[1]", "value": "Active"}, {"measurement": "Drug uptake", "setting": "[2]", "value": "Not Active"}, {"measurement": "Drug uptake", "setting": "[3]", "value": "> 80", "unit": "%"}, {"measurement": "Drug uptake", "setting": "[4]", "value": "< 20", "unit": "%"}]}
{"smiles": "NCCCC[C@H](NC(=O)c1ccccc1N)C(=O)N[C@@H](CCCCN)C(=O)N[C@@H](Cc1c[nH]c2ccccc12)C(=O)N[C@@H](Cc1c[nH]c2ccccc12)C(=O)N[C@@H](CCCCN)C(=O)N[C@@H](CCCCN)C(=O)N[C@@H](Cc1c[nH]c2ccccc12)C(=O)N[C@H](C(=O)N[C@@H](CCCCN)C(=O)N[C@@H](CCCCNc1ccc([N+](=O)[O-])cc1[N+](=O)[O-])C(N)=O)C(c1ccccc1)c1ccccc1", "values": [{"measurement": "Stability", "setting": "[5]", "value": "Unstable"}, {"measurement": "Stability", "setting": "[6]", "value": "Unstable"}, {"measurement": "Stability", "setting": "[7]", "value": "Unstable"}]}
{"smiles": "NCCCC[C@@H](NC(=O)c1ccccc1N)C(=O)N[C@H](CCCCN)C(=O)N[C@H](Cc1c[nH]c2ccccc12)C(=O)N[C@H](Cc1c[nH]c2ccccc12)C(=O)N[C@H](CCCCN)C(=O)N[C@H](CCCCN)C(=O)N[C@H](Cc1c[nH]c2ccccc12)C(=O)N[C@@H](C(=O)N[C@H](CCCCN)C(=O)N[C@H](CCCCNc1ccc([N+](=O)[O-])cc1[N+](=O)[O-])C(N)=O)C(c1ccccc1)c1ccccc1", "values": [{"measurement": "Stability", "setting": "[8]", "value": "Stable"}, {"measurement": "Stability", "setting": "[9]", "value": "Stable"}, {"measurement": "Stability", "setting": "[10]", "value": "Stable"}]}
